In PubChem BioAssay (NCI):
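Cells were grown in 96-well plates and exposed to each compound for 48 hours at five concentrations; endpoints were interpolated linearly between bracketing concentrations, or set to the highest concentration if not reached. TGI: concentration producing complete growth inhibition.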

Key:
Assay in all cases: growth of human tumour cells (NCI), 48 h
HCT-116 colon = test system: HCT-116 colon
MCF7 breast = test system: MCF7 breast
M14 melanoma = test system: M14 melanoma
T-47D breast = test system: T-47D breast
U251 CNS = test system: U251 CNS
HL-60(TB) leukemia = test system: HL-60(TB) leukemia
K-562 leukemia = test system: K-562 leukemia
LOX IMVI melanoma = test system: LOX IMVI melanoma
SW-620 colon = test system: SW-620 colon
MOLT-4 leukemia = test system: MOLT-4 leukemia
NCI-H522 lung = test system: NCI-H522 lung
PC-3 prostate = test system: PC-3 prostate
DU-145 prostate = test system: DU-145 prostate
UACC-257 melanoma = test system: UACC-257 melanoma
MALME-3M melanoma = test system: MALME-3M melanoma
UACC-62 melanoma = test system: UACC-62 melanoma
SNB-75 CNS = test system: SNB-75 CNS
A498 renal = test system: A498 renal

| SMILES | TGI (HCT-116 colon) | TGI (MCF7 breast) | TGI (M14 melanoma) | TGI (T-47D breast) | TGI (U251 CNS) | TGI (HL-60(TB) leukemia) | TGI (K-562 leukemia) | TGI (LOX IMVI melanoma) | TGI (SW-620 colon) | TGI (MOLT-4 leukemia) | TGI (NCI-H522 lung) | TGI (PC-3 prostate) | TGI (DU-145 prostate) | TGI (UACC-257 melanoma) | TGI (MALME-3M melanoma) | TGI (UACC-62 melanoma) | TGI (SNB-75 CNS) | TGI (A498 renal) |
| --- | --- | --- | --- | --- | --- | --- | --- | --- | --- | --- | --- | --- | --- | --- | --- | --- | --- | --- |
| COc1ccc(NC(C)=O)cc1N1C(=O)/C(=C\c2cccc(Oc3ccccc3)c2)SC1c1ccccc1 (centres undefined) | 23.8 µM | > 100 µM | > 100 µM | > 100 µM | > 100 µM | 37.9 µM | > 100 µM | 55.5 µM | 71.1 µM | 82.6 µM | > 100 µM | > 100 µM | > 100 µM | > 100 µM | > 100 µM | > 100 µM | > 100 µM | > 100 µM |
| NNC(=O)CSc1nnc(CCCCCCCCc2nnc(SCC(=O)NN)o2)o1 | > 100 µM | > 100 µM | > 100 µM | > 100 µM | > 100 µM | > 100 µM | > 100 µM | > 100 µM | > 100 µM | > 100 µM | > 100 µM | > 100 µM | > 100 µM | > 100 µM | > 100 µM | > 100 µM | > 100 µM | > 100 µM |
| N#Cc1c(Nc2ccccc2)[n+]([O-])c2ccc(Cl)cc2[n+]1[O-] | 33.1 µM | > 35.2 µM | 34.1 µM | > 100 µM | 15.6 µM | 12.1 µM | > 22.6 µM | 12.7 µM | > 100 µM | > 100 µM | 6.49 µM | > 100 µM | > 96.4 µM | > 25.3 µM | 26.9 µM | 31.5 µM | > 96.6 µM | > 61.3 µM |
| O=C(CSCC(=O)N/N=C/c1ccncc1)N/N=C/c1ccncc1 | > 100 µM | > 100 µM | > 100 µM | > 100 µM | > 100 µM | > 100 µM | > 100 µM | > 100 µM | > 100 µM | > 100 µM | > 100 µM | > 100 µM | > 100 µM | > 100 µM | > 100 µM | > 100 µM | > 100 µM | > 100 µM |
| C/C(CC(O)(C(F)(F)F)C(F)(F)F)=N/Nc1ccc([N+](=O)[O-])cc1[N+](=O)[O-] | 4.56 µM | > 10 µM | > 10 µM | 8.37 µM | > 10 µM | 7.94 µM | 9.56 µM | > 10 µM | > 10 µM | > 10 µM | > 10 µM | > 10 µM | > 10 µM | > 10 µM | > 10 µM | > 10 µM | > 10 µM | 8.37 µM |
| COc1cc(C2S/C(=C/c3ccccc3)C(=O)N2c2ccccn2)cc(OC)c1OC (centres undefined) | 20.6 µM | > 57.9 µM | 31.8 µM | 36.3 µM | 28.1 µM | > 100 µM | > 100 µM | 26.9 µM | 64.3 µM | > 100 µM | 24.6 µM | > 81.7 µM | 31.9 µM | > 100 µM | 27.5 µM | 29.8 µM | 39.7 µM | 33.4 µM |
| COC(=O)c1ccccc1Nc1ccccc1C(=O)OC | > 100 µM | > 100 µM | > 100 µM | > 100 µM | > 100 µM | > 100 µM | > 100 µM | > 100 µM | > 100 µM | > 100 µM | > 100 µM | > 100 µM | > 100 µM | > 100 µM | 96.8 µM | > 100 µM | > 100 µM | > 100 µM |
| NC(N)=N/N=C/c1c(-c2ccc(Cl)cc2)nc2n1CCS2 | 16.4 µM | 27.9 µM | 11.1 µM | 34.8 µM | 28.5 µM | > 100 µM | 20 µM | 18 µM | 21 µM | 17.3 µM | 28.7 µM | 18.2 µM | 25.5 µM | 28 µM | 30.9 µM | 24.6 µM | 26.2 µM | 26.4 µM |
| NC1=CN(Cc2ccccc2)C2=N/C(=C\c3ccco3)C(=O)N12 | > 100 µM | > 100 µM | > 100 µM | > 100 µM | > 100 µM | > 100 µM | > 100 µM | > 100 µM | > 100 µM | > 100 µM | > 100 µM | > 100 µM | > 100 µM | > 100 µM | > 100 µM | > 100 µM | > 100 µM | > 100 µM |
| Cn1c2c(c3c(=O)[nH]ncc31)CCCc1ccccc1-2 | > 100 µM | 53 µM | > 100 µM | > 100 µM | 92.1 µM | 16.3 µM | > 100 µM | 46.1 µM | > 100 µM | 21.6 µM | 38.3 µM | > 100 µM | > 100 µM | > 100 µM | 60.7 µM | > 100 µM | > 100 µM | 57.3 µM |
| COc1ccccc1NC1=NCC(C)S1 (centres undefined) | > 100 µM | > 100 µM | > 100 µM | > 100 µM | > 100 µM | > 100 µM | > 100 µM | > 100 µM | > 100 µM | > 100 µM | > 100 µM | > 100 µM | > 100 µM | > 100 µM | > 100 µM | > 100 µM | > 100 µM | > 100 µM |
| O=c1cc(-c2cccc(Br)c2)[nH]c2cc3c(cc12)OCO3 | 13.3 µM | > 100 µM | 24.5 µM | 36.5 µM | 11.4 µM | > 100 µM | > 100 µM | 17.4 µM | > 100 µM | > 100 µM | 18.3 µM | > 100 µM | 18.1 µM | > 100 µM | 17.2 µM | 4.83 µM | 10.5 µM | 13.8 µM |
| NC(=O)N=Nc1c2ccccc2n2[nH]ccc12 | > 100 µM | 66.7 µM | > 100 µM | 92.9 µM | > 100 µM | 58.1 µM | > 100 µM | > 100 µM | > 100 µM | > 100 µM | > 100 µM | > 100 µM | > 100 µM | > 100 µM | > 100 µM | > 100 µM | > 100 µM | > 100 µM |
| S=c1sscc1N1CCSc2ssc(=S)c21 | > 100 µM | > 100 µM | > 100 µM | > 100 µM | 38.2 µM | > 100 µM | > 100 µM | > 100 µM | > 100 µM | > 100 µM | 59.7 µM | > 100 µM | 81.6 µM | > 100 µM | > 100 µM | > 100 µM | 43.5 µM | 77.4 µM |
| CCO/N=C(/CC)c1ccc(Br)s1 | > 100 µM | > 100 µM | > 100 µM | > 100 µM | > 100 µM | > 100 µM | > 100 µM | > 100 µM | > 100 µM | > 100 µM | > 100 µM | > 100 µM | > 100 µM | > 100 µM | > 100 µM | > 100 µM | > 100 µM | > 100 µM |
| CC(C)C(=O)CP(=O)(O)O | > 100 µM | > 100 µM | > 100 µM | > 100 µM | > 100 µM | > 100 µM | > 100 µM | > 100 µM | > 100 µM | > 100 µM | > 100 µM | > 100 µM | > 100 µM | > 100 µM | > 100 µM | > 100 µM | > 100 µM | > 100 µM |
| Nc1c(O)c(C(=O)O)cc2ccccc12 | 32.2 µM | 24.2 µM | 35.2 µM | > 100 µM | > 100 µM | > 100 µM | 85.9 µM | 22.5 µM | 32.3 µM | 83.8 µM | 54.2 µM | > 100 µM | 35.9 µM | 38.4 µM | 29.6 µM | 31.6 µM | 53.5 µM | > 100 µM |
| CCOC(=O)c1c[nH]c2cc3c(cc2c1=O)CCS3 | > 100 µM | > 100 µM | > 100 µM | > 100 µM | > 100 µM | > 100 µM | > 100 µM | > 100 µM | > 100 µM | > 100 µM | > 100 µM | > 100 µM | > 100 µM | > 100 µM | > 100 µM | > 100 µM | > 100 µM | > 100 µM |
